Source: US20150030544A1, “Enzymatic Nanosensor Compositions and Methods” (Northeastern University, priority 2012, published 2015)

Settings: mice, 75 mg/kg i.p., averaged data of three experiments, model fit
Experimental: Enzyme nanosensor solutions were prepared using concentrated O2NS nanosensors (25 μL, ˜10^13 particles) and DAO (50 μL, 1.75IU). As a control, O2NS injections were made with concentrated nanosensors (25 μL) diluted with 50 μL of PBS. […] Mice were weighed, anesthetized with isoflurane (2% isoflurane, 98% oxygen), and placed in the IVIS imager. Two intradermal 30 μL injections of nanosensors were made along the midline of the back. Enzyme nanosensor was injected posterior to O2NS. After injection the animals are imaged every 30 seconds for 30 minutes. […] The mice were imaged for an additional 45 minutes to 1 hour. All animals were sacrificed after the end of the experiment. Three separate experiments were performed with new mice and fresh batches of nanosensor solution.
For data analysis, a region of interest encompassing the injection area was selected and intensity was recorded. […] The difference in normalized signals between the enzymatic nanosensors and O2NS was calculated for each mouse. […] The average data was then fit to a single compartment open model: Equation (1)
Where I is the normalized fluorescent intensity difference, A is a scaling parameter, ka and ke are the absorption and elimination rate constants and tlag is the lag time. The parameters ka, ke, and tlag were fit using the method of residuals and A was fit using least squares minimization for plotting purposes.

lag time: 4.8 min
Compound: Cl.Cl.NCCc1c[nH]cn1 [histamine, histamine dihydrochloride]
